# Test results reported in patent publication US9675584B2, “Substituted indoles for the inhibition of PASK” (BioEnergenix, LLC, priority 2011, dated 2017).
# pIC50: −log10 of the molar value.
# Target: T1, hPASK (Homo sapiens, UniProt Q96RG2)
# T1 construct: IC50 Kinase Domain; purchased Invitrogen
# Assay: Biochemical assay for hPASK activity (PAS kinase FRET assay; IC50 kinase domain)
# Details: PASK kinase domain
# Procedure: Biochemical Assay for hPASK Activity
# One assay for purified hPASK activity utilizes the Kinase-Glo Luminescent Kinase Assay (Promega), which quantifies the amount of ATP remaining in solution following kinase reaction. The assay is carried out in a 96-well plate format and is performed by adding a volume of Kinase-Glo Reagent (Promega, catalog #V3771) equal to the volume of solution in the well of a completed kinase reaction. Kinase-Glo reagent contains Luciferase and its substrate. After addition to a kinase reaction it allows to measure luminescence. The amount of ATP left in solution at the time of Kinase-Glo Plus addition is directly proportional to the luminescence that is measured in each well, and inversely correlated with kinase activity.
# Purified hPASK from insect cells (0.02 μg) is added to a 50 μL reaction mix containing 40 mM HEPES (pH 7.0), 100 mM KCl, 5 mM MgCl2, 1 mM DTT and 1 μg of MBP protein. […] The luminescence is measured as soon as 10 minutes after Kinase-Glo reagent is added. […]
# The aim of the FRET assay is to determine the inhibition potential of test compounds on targeted kinase. This assay platform provides a homogenous screening method for measuring kinase activity by quantitating the amount of phospho-substrate in solution following a kinase reaction. […]
# T1 sequence (Q96RG2 999-1251 limits assumed): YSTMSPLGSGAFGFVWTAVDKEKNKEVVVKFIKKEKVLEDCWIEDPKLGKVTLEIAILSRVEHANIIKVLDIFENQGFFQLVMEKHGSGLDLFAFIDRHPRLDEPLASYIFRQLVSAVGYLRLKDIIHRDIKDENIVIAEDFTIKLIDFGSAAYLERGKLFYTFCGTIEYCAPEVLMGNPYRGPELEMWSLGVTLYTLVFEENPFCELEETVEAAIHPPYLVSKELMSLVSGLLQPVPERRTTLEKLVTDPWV
row,pIC50,SMILES
1,≥ 5.00,"O=C(O)/C=C/c1cnc(-c2ccc(F)cc2)c(-c2ccc(F)cc2)n1 [Example 2, (E)-3-(5,6-bis(4-fluorophenyl)pyrazin-2-yl)acrylic acid]"
2,≥ 5.00,"O=C(O)c1ccc2c(c1)cc(-c1ccc(F)cc1)n2-c1ccc(F)cc1 [Example 1, 1,2-Bis(4-fluorophenyl)-1H-indole-5-carboxylic acid]"
